In ChEMBL document CHEMBL3112589, “Structure-activity relationships of diamine inhibitors of cytochrome P450 (CYP) 3A as novel pharmacoenhancers, part I: core region” (Bioorg Med Chem Lett, 2014):
pEC50, pIC50: −log10 of the molar value.

Assays:
[1] = system: Human immunodeficiency virus 1; assay: Antiviral activity against HIV1 by cell based assay; assay type: functional, organism-based
[2] = target: Cytochrome P450 3A4 (Homo sapiens, UniProt P08684); assay: Inhibition of human CYP3A4-mediated midazolam 1'-hydroxylase activity
[3] = target: Cytochrome P450 2C19 (Homo sapiens, UniProt P33261); assay: Inhibition of human CYP2C19
[4] = target: Cytochrome P450 2C9 (Homo sapiens, UniProt P11712); assay: Inhibition of human CYP2C9
[5] = target: T1, Cytochrome P450 1A2 (Homo sapiens, UniProt P05177); assay: Inhibition of human CYP1A2
T1 sequence (P05177 whole entry): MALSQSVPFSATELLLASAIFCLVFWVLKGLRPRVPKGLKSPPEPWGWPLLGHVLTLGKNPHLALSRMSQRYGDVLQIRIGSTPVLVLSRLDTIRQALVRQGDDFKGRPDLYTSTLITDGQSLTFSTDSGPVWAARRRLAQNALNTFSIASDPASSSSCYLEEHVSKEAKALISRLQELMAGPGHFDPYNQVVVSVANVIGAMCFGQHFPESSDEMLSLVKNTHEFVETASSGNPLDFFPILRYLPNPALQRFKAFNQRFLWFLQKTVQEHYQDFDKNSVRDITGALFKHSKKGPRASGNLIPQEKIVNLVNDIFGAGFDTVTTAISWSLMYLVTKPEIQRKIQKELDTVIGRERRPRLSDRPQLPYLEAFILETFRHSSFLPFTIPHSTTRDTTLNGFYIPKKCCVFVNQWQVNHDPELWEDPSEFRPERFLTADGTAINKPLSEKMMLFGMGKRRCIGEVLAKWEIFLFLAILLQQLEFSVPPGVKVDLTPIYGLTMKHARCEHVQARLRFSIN

[6] = target: Protease (Human immunodeficiency virus 1, UniProt Q9YQ12); assay: Inhibition of HIV-1 protease
[7] = target: Cytochrome P450 2D6 (Homo sapiens, UniProt P10635); assay: Inhibition of human CYP2D6
Cytochrome P450 2D6, sequence (P10635 whole entry): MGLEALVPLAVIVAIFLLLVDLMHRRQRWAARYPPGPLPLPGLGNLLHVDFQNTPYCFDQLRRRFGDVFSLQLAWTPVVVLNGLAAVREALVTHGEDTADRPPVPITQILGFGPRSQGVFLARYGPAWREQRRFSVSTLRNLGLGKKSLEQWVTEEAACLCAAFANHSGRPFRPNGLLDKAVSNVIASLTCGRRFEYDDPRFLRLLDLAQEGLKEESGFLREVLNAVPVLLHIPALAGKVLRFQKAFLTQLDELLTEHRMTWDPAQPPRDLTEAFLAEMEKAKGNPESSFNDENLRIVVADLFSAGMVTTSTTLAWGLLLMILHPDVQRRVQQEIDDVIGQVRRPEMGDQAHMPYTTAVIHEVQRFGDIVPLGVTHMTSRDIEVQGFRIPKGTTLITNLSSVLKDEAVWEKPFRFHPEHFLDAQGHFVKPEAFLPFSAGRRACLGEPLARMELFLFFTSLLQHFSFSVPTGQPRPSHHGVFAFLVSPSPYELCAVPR

Protease, sequence (Q9YQ12 whole entry): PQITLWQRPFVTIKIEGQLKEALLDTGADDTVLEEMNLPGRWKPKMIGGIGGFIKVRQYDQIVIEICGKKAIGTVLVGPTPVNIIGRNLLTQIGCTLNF
Cytochrome P450 2C9, sequence (P11712 whole entry): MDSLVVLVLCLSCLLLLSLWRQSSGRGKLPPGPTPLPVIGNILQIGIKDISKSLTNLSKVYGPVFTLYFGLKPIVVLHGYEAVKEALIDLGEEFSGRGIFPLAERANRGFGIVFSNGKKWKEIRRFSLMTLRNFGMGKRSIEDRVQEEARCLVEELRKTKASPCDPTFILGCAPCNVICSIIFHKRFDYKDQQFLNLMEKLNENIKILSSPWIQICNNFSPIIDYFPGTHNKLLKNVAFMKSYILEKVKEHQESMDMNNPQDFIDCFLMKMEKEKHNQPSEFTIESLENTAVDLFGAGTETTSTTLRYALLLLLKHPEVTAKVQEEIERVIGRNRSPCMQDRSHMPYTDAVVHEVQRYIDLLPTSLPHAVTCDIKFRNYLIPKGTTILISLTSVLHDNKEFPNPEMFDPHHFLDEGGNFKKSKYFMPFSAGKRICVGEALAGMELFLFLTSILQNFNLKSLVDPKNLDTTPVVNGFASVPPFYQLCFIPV
Cytochrome P450 3A4, sequence (P08684 whole entry): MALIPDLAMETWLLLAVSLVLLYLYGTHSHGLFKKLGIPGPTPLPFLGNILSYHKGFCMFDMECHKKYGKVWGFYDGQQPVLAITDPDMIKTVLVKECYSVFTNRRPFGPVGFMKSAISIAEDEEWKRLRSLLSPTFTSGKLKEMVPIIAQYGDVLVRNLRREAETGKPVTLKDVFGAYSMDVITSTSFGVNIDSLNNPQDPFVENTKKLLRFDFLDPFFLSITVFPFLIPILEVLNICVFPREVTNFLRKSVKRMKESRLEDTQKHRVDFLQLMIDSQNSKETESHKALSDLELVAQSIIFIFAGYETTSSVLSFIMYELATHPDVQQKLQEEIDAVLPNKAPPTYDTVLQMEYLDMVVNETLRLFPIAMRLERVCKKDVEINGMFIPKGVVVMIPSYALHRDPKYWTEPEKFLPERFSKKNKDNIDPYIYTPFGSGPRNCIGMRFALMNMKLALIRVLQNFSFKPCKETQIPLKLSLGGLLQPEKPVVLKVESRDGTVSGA
Cytochrome P450 2C19, sequence (P33261 whole entry): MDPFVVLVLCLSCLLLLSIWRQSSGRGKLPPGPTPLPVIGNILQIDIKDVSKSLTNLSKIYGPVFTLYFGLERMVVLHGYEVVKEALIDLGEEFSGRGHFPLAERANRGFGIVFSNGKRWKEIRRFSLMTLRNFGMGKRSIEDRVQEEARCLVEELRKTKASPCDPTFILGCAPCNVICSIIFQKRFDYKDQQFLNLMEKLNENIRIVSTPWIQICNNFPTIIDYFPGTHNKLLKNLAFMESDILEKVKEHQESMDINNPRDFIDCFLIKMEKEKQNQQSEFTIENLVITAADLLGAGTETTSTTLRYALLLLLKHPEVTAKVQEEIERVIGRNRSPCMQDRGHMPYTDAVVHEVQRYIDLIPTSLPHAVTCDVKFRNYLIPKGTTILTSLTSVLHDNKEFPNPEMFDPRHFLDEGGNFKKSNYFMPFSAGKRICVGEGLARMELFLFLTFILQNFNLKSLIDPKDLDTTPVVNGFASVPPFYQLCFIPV

Compound	pEC50 [1]	pIC50 [2]	pIC50 [3]	pIC50 [4]	pIC50 [5]	pIC50 [6]	pIC50 [7]
CC(C)c1nc(CN(C)C(=O)N[C@H](C(=O)NCCNC(=O)OCc2cncs2)C(C)C)cs1	< 4.52						
CC(C)c1nc(CN(C)C(=O)N[C@H](C(=O)N[C@H](CC[C@H](Cc2ccccc2)NC(=O)OCc2cncs2)Cc2ccccc2)C(C)C)cs1	6.54		5.03	5.17	< 4.60	8.30	5.54
CC(C)c1nc(CN(C)C(=O)N[C@H](C(=O)NC2CCN(C(=O)OCc3cncs3)CC2)C(C)C)cs1	5.05	5.78					
CC(C)c1nc(CN(C)C(=O)N[C@H](C(=O)N[C@@H](Cc2ccccc2)[C@H]2OC(C)(C)O[C@@H]2[C@H](Cc2ccccc2)NC(=O)OCc2cncs2)C(C)C)cs1	< 4.52	6.51					
CC(C)c1nc(CN(C)C(=O)N[C@H](C(=O)N2CCC(NC(=O)OCc3cncs3)CC2)C(C)C)cs1	5.40						
CC[C@@H](CC[C@H](CC)NC(=O)[C@@H](NC(=O)N(C)Cc1csc(C(C)C)n1)C(C)C)NC(=O)OCc1cncs1	< 4.52					< 4.52	
CC(C)c1nc(CN(C)C(=O)N[C@H](C(=O)N[C@H](/C=C/[C@H](Cc2ccccc2)NC(=O)OCc2cncs2)Cc2ccccc2)C(C)C)cs1	4.96	6.82					
CC(C)c1nc(CN(C)C(=O)N[C@H](C(=O)N[C@H](CCNNC(=O)OCc2cncs2)Cc2ccccc2)C(C)C)cs1	< 4.52					5.06	
CC(C)c1nc(CN(C)C(=O)N[C@@H](CCN2CCOCC2)C(=O)N[C@H](CCN(Cc2ccccc2Cl)C(=O)OCc2cncs2)Cc2ccccc2)cs1	< 4.52					< 4.52	
CC(C)c1nc(CN(C)C(=O)N[C@H](C(=O)NCCCNC(=O)OCc2cncs2)C(C)C)cs1	< 4.52						
CC(C)c1nc(CN(C)C(=O)N[C@H](C(=O)N[C@@H](Cc2ccccc2)C[C@H](O)[C@H](Cc2ccccc2)NC(=O)OCc2cncs2)C(C)C)cs1 [RITONAVIR]	7.82						
CC(C)c1nc(CN(C)C(=O)N[C@H](C(=O)NCCCCNC(=O)OCc2cncs2)C(C)C)cs1	< 4.52						
CC(C)c1nc(CN(C)C(=O)N[C@H](C(=O)N[C@H](CC[C@H](Cc2ccccc2)N(C)C(=O)OCc2cncs2)Cc2ccccc2)C(C)C)cs1	6.06						
CC(C)c1nc(CN(C)C(=O)N[C@H](C(=O)N[C@H](CCN(Cc2ccccc2)NC(=O)OCc2cncs2)Cc2ccccc2)C(C)C)cs1	6.42					7.52	
CC(C)c1nc(CN(C)C(=O)N[C@@H](CCN2CCOCC2)C(=O)N[C@H](CCN(Cc2ccc(Cl)cc2)C(=O)OCc2cncs2)Cc2ccccc2)cs1	< 4.52					< 4.52	
CC(C)c1nc(CN(C)C(=O)N[C@@H](CCN2CCOCC2)C(=O)N[C@H](CCN(Cc2ccccc2)C(=O)OCc2cncs2)Cc2ccccc2)cs1	< 4.52		5.17	5.09	< 4.60	< 4.52	5.89

The remaining lines, values ahead:

pEC50 [1]	pIC50 [2]	pIC50 [3]	pIC50 [4]	pIC50 [5]	pIC50 [6]	pIC50 [7]	Compound
< 4.52	5.85						CC(C)c1nc(CN(C)C(=O)N[C@H](C(=O)N2CCN(C(=O)OCc3cncs3)CC2)C(C)C)cs1
< 4.52		5.06	< 4.60	4.64	< 4.52	5.64	CC(C)c1nc(CN(C)C(=O)N[C@H](C(=O)N[C@@H](Cc2ccccc2)[C@H](Cc2ccccc2)NC(=O)OCc2cncs2)C(C)C)cs1
6.26							CCC[C@@H](CC[C@H](Cc1ccccc1)NC(=O)OCc1cncs1)NC(=O)[C@@H](NC(=O)N(C)Cc1csc(C(C)C)n1)C(C)C
5.78							CC(C)c1nc(CN(C)C(=O)N[C@H](C(=O)N[C@H](CC(=O)[C@H](Cc2ccccc2)NC(=O)OCc2cncs2)Cc2ccccc2)C(C)C)cs1
< 4.52		< 5.30	4.86	5.00	< 4.52	6.40	CC(C)c1nc(CN(C)C(=O)N[C@H](C(=O)N[C@@H](CC[C@@H](Cc2ccccc2)NC(=O)OCc2cncs2)Cc2ccccc2)C(C)C)cs1
< 4.52		< 4.60	< 4.60	< 4.60	< 4.52	5.09	CC(C)CN(CC[C@H](Cc1ccccc1)NC(=O)OCc1cncs1)C(=O)[C@H](CCN1CCOCC1)NC(=O)N(C)Cc1csc(C(C)C)n1
< 4.52					< 4.52		CC(C)c1nc(CN(C)C(=O)N[C@H](C(=O)N[C@@H](C)CC[C@H](C)NC(=O)OCc2cncs2)C(C)C)cs1
5.77							CCC[C@@H](CC[C@H](Cc1ccccc1)NC(=O)[C@@H](NC(=O)N(C)Cc1csc(C(C)C)n1)C(C)C)NC(=O)OCc1cncs1
< 4.52	6.52				4.68		CC(C)c1nc(CN(C)C(=O)N[C@H](C(=O)N(CCCN(Cc2ccccc2)C(=O)OCc2cncs2)Cc2ccccc2)C(C)C)cs1
< 4.52					< 4.52		CC(C)c1nc(CN(C)C(=O)N[C@@H](CCN2CCOCC2)C(=O)NC(Cc2ccccc2)CN(Cc2ccccc2)C(=O)OCc2cncs2)cs1 (stereo not given in full)
< 4.52	6.49	< 4.60	< 4.60	< 4.60		6.05	CC(C)c1nc(CN(C)C(=O)N[C@H](C(=O)N[C@H](CCN(Cc2ccccc2)C(=O)OCc2cncs2)Cc2ccccc2)C(C)C)cs1
< 4.52	6.62	5.82	5.47	< 4.60	4.64	5.96	CC(C)c1nc(CN(C)C(=O)N[C@H](C(=O)N(CCCCN(Cc2ccccc2)C(=O)OCc2cncs2)Cc2ccccc2)C(C)C)cs1
< 4.52					< 4.52		CC(C)CN(CC[C@H](Cc1ccccc1)NC(=O)[C@H](CCN1CCOCC1)NC(=O)N(C)Cc1csc(C(C)C)n1)C(=O)OCc1cncs1
6.14							CC(C)c1nc(CN(C)C(=O)N[C@H](C(=O)N(C)[C@H](CC[C@H](Cc2ccccc2)NC(=O)OCc2cncs2)Cc2ccccc2)C(C)C)cs1
